Source: the RepoRT retention time repository (doi:10.1021/acs.analchem.7b00925)

assay: HILIC, Merck SeQuant ZIC-HILIC, 100 × 2.1 mm, 3.5 µm, 25 °C, 0.3 mL/min, estimated dead time 0.73 min; A: water + 0.1% formic acid, pH 3; B: acetonitrile + 0.1% formic acid, pH 3; gradient (min/%B) 0/95 1.5/95 13.5/40 15.5/40 29.7/25 33.5/25 34.5/95 41.5/95; settings: stereoisomer not certain

**Q.** Which LC retention time does the source give for NC(CCCCNC(CCC(=O)O)C(=O)O)C(=O)O (stereo not drawn) [Saccharopine] here?
**A.** 10.1 min

**Q.** Which LC retention time does the source give for CC(C)(C)NCC(O)c1ccc(O)c(CO)c1 (stereo not drawn) [Salbutamol] here?
**A.** 6.57 min

**Q.** With CNCC(=O)O [Sarcosine] as the compound, how does the LC retention time read?
**A.** 7.67 min

**Q.** For CC(O)C(=O)C1=Nc2c(nc(N)[nH]c2=O)NC1 (stereo not drawn) [Sepiapterin], which LC retention time is on record?
**A.** 4.63 min

**Q.** With NCCc1c[nH]c2ccc(O)cc12 [Serotonin] as the compound, how does the LC retention time read?
**A.** 7.73 min

**Q.** Which LC retention time does the source give for OCC1OC(OC2(CO)OC(CO)C(O)C2O)C(O)C(O)C1O (stereo not drawn) [Sucrose] here?
**A.** 7.32 min

**Q.** Which LC retention time does the source give for NCCS(=O)(=O)O [Taurine] here?
**A.** 7.44 min

**Q.** With CC(CCC(=O)NCCS(=O)(=O)O)C1CCC2C3C(O)CC4CC(O)CCC4(C)C3CC(O)C12C (stereo not drawn) [Taurocholic acid] as the compound, how does the LC retention time read?
**A.** 4.75 min

**Q.** Which LC retention time does the source give for O=c1cc[nH]c(=S)[nH]1 [Thiouracil] here?
**A.** 1.93 min

**Q.** With Cc1cn(C2CC(O)C(CO)O2)c(=O)[nH]c1=O (stereo not drawn) [Thymidine] as the compound, how does the LC retention time read?
**A.** 2.58 min

**Q.** With C[n+]1cccc(C(=O)[O-])c1 [Trigonelline] as the compound, how does the LC retention time read?
**A.** 7.26 min

**Q.** Which LC retention time does the source give for C[N+](C)(C)[O-] [Trimethylamine N-oxide] here?
**A.** 6.67 min

**Q.** Which LC retention time does the source give for NCCc1c[nH]c2ccccc12 [Tryptamine] here?
**A.** 6.1 min

**Q.** With C[N+](C)(C)C(Cc1c[nH]c2ccccc12)C(=O)[O-] (stereo not drawn) [Tryptophan betaine] as the compound, how does the LC retention time read?
**A.** 5.65 min

**Q.** For NCCc1ccc(O)cc1 [Tyramine], which LC retention time is on record?
**A.** 6.81 min

**Q.** With O=c1ccn(C2OC(COP(=O)(O)O)C(O)C2O)c(=O)[nH]1 (stereo not drawn) [Uridine mono-phosphate] as the compound, how does the LC retention time read?
**A.** 6.99 min

**Q.** Which LC retention time does the source give for O=c1ccn(C2OC(CO)C(O)C2O)c(=O)[nH]1 (stereo not drawn) [Uridine] here?
**A.** 4.98 min

**Q.** With CC(C)C(C(=O)O)[N+](C)(C)C (stereo not drawn) [Valine betaine] as the compound, how does the LC retention time read?
**A.** 5.99 min

**Q.** For O=c1[nH]c(=O)c2ncn(C3OC(CO)C(O)C3O)c2[nH]1 (stereo not drawn) [Xanthosine], which LC retention time is on record?
**A.** 5.36 min

**Q.** For OC1COC(O)C(O)C1O (stereo not drawn) [Xylose], which LC retention time is on record?
**A.** 6.03 min

**Q.** For NC(CCC(=O)O)C(=O)NC(Cc1ccc(O)cc1)C(=O)O (stereo not drawn) [a-glutamyl-tyrosine], which LC retention time is on record?
**A.** 7.57 min

**Q.** With CC(CCC(=O)O)C1CCC2C3C(O)CC4CC(O)CCC4(C)C3CC(O)C12C (stereo not drawn) [cholic acid] as the compound, how does the LC retention time read?
**A.** 1.96 min

**Q.** With O=C(O)C=C(CC(=O)O)C(=O)O [cis-aconitate] as the compound, how does the LC retention time read?
**A.** 4.23 min

**Q.** Which LC retention time does the source give for O=C(O)C=Cc1cnc[nH]1 [cis-urocanic acid] here?
**A.** 5 min

**Q.** With Nc1cccc(C(=O)O)c1 [m-Aminobenzoic acid] as the compound, how does the LC retention time read?
**A.** 2.09 min

**Q.** With O=C(O)CNC(=O)c1ccccc1O [o-Hydroxyhippuric acid] as the compound, how does the LC retention time read?
**A.** 1.44 min

**Q.** Which LC retention time does the source give for Nc1ccc(C(=O)O)cc1 [p-Aminobenzoic acid] here?
**A.** 1.53 min

**Q.** Which LC retention time does the source give for COc1cc(/C=C/C(=O)O)ccc1O [trans-Ferulic acid] here?
**A.** 1.39 min
